System: isolated hearts from aged WT mice
Assay: Ischemic-reperfusion injury in isolated Langendorff hearts from chronically treated aged WT mice
Type: in vivo, mouse
Experimental: There are 8 different sets of in vivo experiments in this study: • A) Phenotypic characterisation of the heart and blood vessels in global IRAP knockout mice and their WT controls treated for 4 weeks with Angiotensin (Ang) II (800 ng/kg/min; s.c.) where mouse hearts and blood vessels were compared to tissue obtained from young WT and IRAP^−/− mice treated with saline. • B) Prevention of Ang II-induced changes in the cardiovascular system following IRAP inhibitor treatment. In the prevention model, WT mice were treated with Ang II (800 ng/kg/min; s.c.)±the IRAP inhibitor (HFI-419; 500 ng/kg/min for 28 days) or HFI-vehicle (1 DMSO:3 HBC). • C) Phenotypic characterisation of the aged heart, kidney and blood vessels in the global IRAP knockout mice where aged WT and IRAP^−/− mouse hearts, kidneys and blood vessels were compared to tissue obtained from young WT and IRAP^−/− mice. • D) Reversal of the age-induced changes in the cardiovascular system following IRAP inhibitor treatment. In the reversal model, aged WT mice were treated with either saline, IRAP inhibitor (HFI-419 at 500 ng/kg/min; compound 1 at 500 ng/kg/min; compound 2 at 50 ng/kg/min) or HFI-vehicle (1 DMSO: 3 HBC) for 4 weeks. • E) Prevention of ischemic-reperfusion injury in isolated hearts taken from aged global IRAP knockout mice and aged IRAP inhibitor (HFI-419 at 500 ng/kg/min; s.c.) treated WT mice compared to age-matched vehicle-treated (1 DMSO:3 HBC; s.c.) WT controls. • F) Phenotypic characterization of cardiac function using echocardiography in the aged global IRAP knockout mice compared to aged and young WT mice. • G) Phenotypic characterization of liver steatosis in IRAP knockout mice in a high fat diet (HFD) model. • H) Reversal of the salt-induced fibrosis in the liver following IRAP inhibitor treatment.
Mice were injected with heparin (500 IU) 20 min before death by cervical dislocation. The heart was rapidly excised and immersed in ice-cold physiological saline solution (PSS). Under a dissecting microscope, the heart and aortic arch were cleared of loose tissue, the pulmonary vein perforated to permit free perfusion of the heart and the heart was mounted on a Langendorff apparatus (ML870B2, ADInstruments, Bella Vista, NSW, Australia) via a 20 gauge needle. The heart was continuously perfused with pre-warmed PSS containing (mM): NaCl 118; KCl 4.7; NaHCO3 25; glucose 11; KH2PO4 1.2; MgSO4 1.2; CaCl2) 1.2 mM and gassed with O2 95% and CO2 5% (carbogen) at 37° C. Prior to use, the PSS was filtered through a 0.22 μm cellulose acetate filter (Millipore). The heart perfusion chamber was surrounded by thermostatically controlled water jacket system that maintained the temperature at 37° C. A fine, 200 μm cannula was present in the PSS line for drug delivery (1:10 drug dilution and with a time lag of 1 min to the heart). A Millar pressure cathether (Millar instruments Inc.) was introduced into the left ventricle via a puncture at the junction of the left atrium and ventricle, and connected to a Power lab system (ADInstruments). […] Left ventricular developed pressure (LVDP); end diastolic pressure (EDP), heart rate (HR), left ventricular contractility (+dP/dt) and left ventricular relaxation (−dP/dt) and coronary flow were recorded continuously.
Ischemia was induced by halting perfusion of the heart for 40 min. […] Left ventricular developed pressure (LVDP), end diastolic pressure (EDP) and contractility (±dP/dt) were recorded during the 60 min. […]

With CCOC(=O)C1=C(NC(C)=O)Oc2cc(O)ccc2C1c1cccnc1 (centres unmarked) [HFI-419] the “reduction in infarct area compared to the aged WT control” value (40 min ischemia / 60 min reperfusion, aged WT mice treated with HFI-419 for 4 weeks, FIG. 20a) was roughly 50%, the “recovery of LVDP in the first 10 minutes of reperfusion” value (aged WT mice, HFI-419 4 weeks) was “did not affect” and the “recovery of LVDP in latter stages of reperfusion” value (evident from 20 min of reperfusion, aged WT mice, HFI-419 4 weeks, FIG. 20b) was “significant improvement”. The “recovery of LV±dP/dt in latter stages of reperfusion” value (evident from 20 min of reperfusion, aged WT mice, HFI-419 4 weeks, FIG. 20c,d) was “significant improvement” and the “HR, LVDP or LVEDP at baseline” value (pre-ischemic baseline, aged WT vehicle vs HFI-419 treated) was “no difference”.

Source: patent US11834663B2, “Fibrotic treatment” (Monash University, priority 2015, dated 2023)
